From patent US20060241067A1, “Methods For inhibiting angiogenesis, cell migration, cell adhesion, and cell survival” (priority 2002, published 2006) come the findings set out here.

One assay deals with protein kinase A. Description: PKA activity assay in HUVECs. The class given is cell-based, human. The settings on record: for PKA activity in endothelial cells: 10 μM PTHrP or 250 μM dibutyryl cAMP. The protocol:
PKA activity was measured in HUVECs essentially as previously described in Kim et al (S. Kim et al., Amer. J. Biol. Chem., 275:33920-33928 (02000)). HUVECs were placed in suspension, allowed to attach to ECM protein coated plates in the absence or presence of anti-integrin antibodies or were treated with 10 μM PTHrP and/or 250 μM cAMP. PKA activity was measured at various times from 0-4 hrs (e.g., 2-30 min).
Plates were washed and blocked in 3% bovine serum albumin for 1 hour at 37° C. HUVECS were trypsinized and resuspended in adhesion buffer (Hanks balanced salt solution supplemented with 10 mM HEPES, pH 7.4, 2 mM MgCl2, 2 mM CaCl2, 0.2 mM MnCl2, 1% BSA. Cells were plated on matrix protein coated plates in culture medium or in the presence of 25 μg/ml anti-α5β1, anti-αvβ3 or anti-α2β1 antibodies for various times from 0 minutes to 4 hours. Plates were washed with phosphate buffered saline and cells were extracted with cold extraction buffer (50 mM Tris, pH 7.5, 5 mM EDTA, 25 μg/ml aprotinin and 25 μg/ml leupeptin). Protein Kinase A activity was assessed using a kit from Gibco BRL. Briefly, equal volumes of lysate and reaction mixture containing final concentrations of 50 mM Tris, pH 7.5, 10 mM MgCl2, 0.25 mg/ml BSA, 50 μM Kemptide (a protein kinase A substrate), 3000 Ci/mmol (γ^32 P) ATP and 100 μM ATP were combined for 5 minutes at 30° C. Total PKA in each sample was measured by performing the assay in the presence of 10 μM cAMP. Background PKA activity in test and total PKA samples were determined by performing the assay in the presence of a PKA inhibitor peptide, PKI (6-22) amide. Twenty μl samples of reaction mixtures were spotted onto phosphocellulose discs and washed repeatedly with 1% (v/v) phosphoric acid in water. Incorporated radioactivity was determined by scintillation counting. Activated PKA was calculated from the ratio of pmol/min test sample PKA to pmol/min total PKA. PKA activity in triplicate samples was measured and experiments were repeated at least three times.
In another embodiment, PKA assays were performed with a kit from Calbiochem (San Diego, Calif.). Cell lysates were incubated in ELISA plates coated with a PKA peptide substrate, then incubated with anti-phosphoserine antibodies. Bound antibody was detected after incubation with anti-rabbit IgG-horse radish peroxidase. Statistical analyses were performed using Student's t-test.

For assay [1], the system named is Human umbilical vein endothelial cells (HUVEC). Put plainly: Cell adhesion (attachment) assay on ECM substrates. In kind it is cell-based. The settings on record: cAMP treatment or PKA catalytic subunit transfection. The protocol: (§1) Human umbilical vein endothelial cells (HUVEC) were grown in Endothelial Growth Medium (containing 2% fetal bovine serum, bFGF and VEGF) (Clonetics, San Diego, Calif.). To render HUVECs quiescent for Rac and/or Rho assays, monolayers of endothelial cells were incubated for 18 hrs in Endothelial Basal Medium supplemented with 0.1% serum (Clonetics). Cell migration and adhesion assays on ECM substrates were performed as previously described in Kim et al. (S. Kim et al., Amer. J. Biol. Chem., 275:33920-33928 (2000); and S. Kim et al., Amer. J. Path., 156:1345-1362 (2000)).

The next assay deals with HUVECS. Put plainly: Staining of actin filaments and focal contacts (rhodamine phalloidin, anti-vinculin). In kind it is cell-based, human. As to the method: Round […] glass coverslips were coated with 5 μg/ml vitronectin for 1 hour at 37° C., then blocked with 3% bovine serum albumin for 2 hours at 37° C. HUVECS were removed from culture dishes by trypsizination, washed in serum-free culture medium, and resuspended in endothelial basal culture medium. Cells were then incubated for one hour at 37° C. on coated coverslips. Cells were incubated in the presence of 25 μg/ml anti-α5β1, anti-α2β1 or no antibodies for 60 minutes. Alternatively, cells in endothelial growth medium containing VEGF and bFGF but no serum were plated on coverslips for 48 hours and then treated with cAMP or medium. Coverslips were then washed to remove unbound cells, fixed for 5 minutes in 3.7% paraformaldehyde and permeabilized in 0.3% TX-100 for 3 minutes. Coverslips were incubated with 0.2 μg/ml anti-vinculin antibodies or rhodamine phalloidin (20 ng/ml) in 20 mg/ml bovine serum albumin in phosphate buffered saline for one hour at room temperature. Coverslips were well washed in PBS and incubated in 10 μg/ml goat anti-mouse-Alexa 568 (for anti-vinculin) for 1 hour at room temperature. Coverslips were mounted using mounting medium prior to fluorescent microsopy.

Another assay deals with Rho. Description: Rho activity assay (GST-Rhotekin binding domain affinity precipitation). The settings on record: cells attached to vitronectin 15 minutes; 250 μM dibutyryl cAMP or transfection. The class given is cell-based, human. The protocol: as §1
Rho activity was determined by measuring the amount of Rho affinity bound to GST-Rhotekin binding domain (RBD). Levels of active Rho were determined by Western blotting affinity precipitated protein with anti-Rho antibodies while total Rho levels were measured by immunoblotting total cell lysates with anti-Rho. Rac activity was determined by measuring the amount of Rac affinity precipitated by the GST-p21-activated protein binding domain, PBD (Upstate Biotechnology, Syracuse, N.Y.). Levels of active Rac were determined by immunoblotting affinity precipitated protein with anti-Rac antibodies. […] Total Rac levels were measured by immunoblotting total cell lysates with anti-Rac.

Where [2] appears, read: after stimulation of endothelial cells.

The structures appear in SMILES notation. “Also recorded” adds a separate entry of the source.

For `CCCC(=O)Nc1ncnc2c1ncn2[C@@H]1O[C@@H]2COP(=O)(O)O[C@H]2[C@H]1OC(=O)CCC` [dibutyryl cAMP], the “PKA activity in endothelial cells” value in the assay with protein kinase A is given as “rapidly stimulate PKA activity in endothelial cells”. Further, the “PKA activity in endothelial cells” value with protein kinase A (listed as cell permeable cAMP) was “activates PKA”. Besides, in the assay on protein kinase A (setting [2]), the “time at which PKA activation is detected” value turned out to be 2 min and the “time of maximal PKA activity” value was 15 min. Moreover, the “cell attachment to vitronectin” value in assay [1] is on record as “enhanced cell attachment to vitronectin”. Besides, in the assay with HUVECS (cAMP treated versus untreated cells), the “increase in the number of focal adhesions” value was determined as 3 fold. In the assay with HUVECS (cAMP treatment or transfection, vitronectin), the “cell shape, stress fibers and actin remodeling” value was “remain round and flat and exhibit neither stress fibers nor cortical actin; also recorded: inhibited actin remodeling and induced a flattened morphology”. Besides, the “localization of Rho A” value in the assay with HUVECS (immunolocalization, cAMP treated cells) is “stimulates the translocation of Rho A to the plasma membrane”. In addition, in the assay on Rho, the “Rho activity (GTP-loading)” value is recorded as “stimulates Rho activity (GTP-loading)”.
